ChEMBL document CHEMBL1629644, “Theileria apicoplast as a target for chemotherapy” (Antimicrob Agents Chemother, 2009)

What was measured:
[1] = Induction of apoptosis in bovine BL3 cells assessed as necrotic after 24 hrs by annexin V/propidium iodide staining-based FACS analysis; type: functional, Bos taurus; parameters: concentration or dose not given beside the values
[2] = Antiproliferative activity against Theileria parva-induced proliferation of bovine B lymphocyte assessed as inhibition of [3H]thymidine uptake after 48 hrs; type: functional; conditions: Bos taurus, B-cell
[3] = Induction of apoptosis in bovine BL3 cells assessed as early apoptotic cells after 24 hrs by annexin V/propidium iodide staining-based FACS analysis; type: functional, Bos taurus; parameters: concentration or dose not given beside the values
[4] = Induction of apoptosis in bovine BL3 cells assessed as viable cells after 24 hrs by annexin V/propidium iodide staining-based FACS analysis; type: functional, Bos taurus; parameters: concentration or dose not given beside the values
[5] = Induction of apoptosis in bovine BL3 cells assessed as late apoptotic cells after 24 hrs by annexin V/propidium iodide staining-based FACS analysis; type: functional, Bos taurus; parameters: concentration or dose not given beside the values
[6] = Antiproliferative activity against Theileria parva-induced proliferation of bovine BL3 cells assessed as inhibition of [3H]thymidine uptake after 32 hrs; type: functional, Bos taurus

**Q.** For `O=C(O)c1cn(C2CC2)c2cc(N3CCNCC3)c(F)cc2c1=O` [CIPROFLOXACIN], which Activity [1] is on record?
**A.** The Activity was 0.03%.

**Q.** And the IC50 [2]?
**A.** Its IC50 is 123 µM.

**Q.** And the Activity [3]?
**A.** Its Activity is 1.03%.

**Q.** What about the Activity [4] of the same compound?
**A.** Its Activity is 98.63%.

**Q.** What about the Activity [5] of the same compound?
**A.** Its Activity is 0.25%.

**Q.** Which Activity [1] does the source give for `CCC[C@@H]1C[C@@H](C(=O)N[C@@H]([C@H]2O[C@H](SC)[C@H](O)[C@@H](O)[C@H]2O)[C@H](C)Cl)N(C)C1` [CLINDAMYCIN] here?
**A.** The Activity was 0%.

**Q.** And the “inhibition (INH)” value [6]?
**A.** Its value is 28%.

**Q.** What about the IC50 [2] of the same compound?
**A.** The IC50 was > 400 µM.

**Q.** What about the Activity [3] of the same compound?
**A.** Its Activity is 7.36%.

**Q.** What about the Activity [4] of the same compound?
**A.** Its Activity is 92.64%.

**Q.** And the Activity [5]?
**A.** Its Activity is 0%.

**Q.** Which results are given for `CC(Oc1ccc(Oc2nc3ccc(Cl)cc3o2)cc1)C(=O)O` (stereo not drawn) [FENOXAPROP]?
**A.** Activity [1]: 0.18%; inhibition (INH) [6]: >75%; IC50 [2]: 262 µM; Activity [3]: 15.98%; Activity [4]: 83.78%; Activity [5]: 0.06%

**Q.** What does the source list for `CO[C@H]1/C=C/O[C@@]2(C)Oc3c(C)c(O)c4c(O)c(c(/C=N/N5CCN(C)CC5)c(O)c4c3C2=O)NC(=O)/C(C)=C\C=C\[C@H](C)[C@H](O)[C@@H](C)[C@@H](O)[C@@H](C)[C@H](OC(C)=O)[C@@H]1C` [RIFAMPIN]?
**A.** Activity [1]: 0%; inhibition (INH) [6]: >75%; IC50 [2]: 96 µM; Activity [3]: 2.43%; Activity [4]: 97.57%; Activity [5]: 0%

**Q.** What does the source list for `CN[C@@H]1C[C@H]2O[C@@](C)([C@@H]1OC)n1c3ccccc3c3c4c(c5c6ccccc6n2c5c31)C(=O)NC4` [STAUROSPORINE]?
**A.** Activity [1]: 0.08%; Activity [3]: 23.83%; Activity [4]: 61.57%; Activity [5]: 14.54%

**Q.** With `Oc1cc(Cl)ccc1Oc1ccc(Cl)cc1Cl` [TRICLOSAN] as the compound, how does the Activity [1] read?
**A.** Its Activity is 0.13%.

**Q.** And the “inhibition (INH)” value [6]?
**A.** Its value is >75%.

**Q.** What about the IC50 [2] of the same compound?
**A.** Its IC50 is 20 µM.

**Q.** What about the Activity [3] of the same compound?
**A.** Its Activity is 44.02%.

**Q.** What about the Activity [4] of the same compound?
**A.** The Activity was 45.87%.

**Q.** What about the Activity [5] of the same compound?
**A.** The Activity was 9.98%.
